Data on 26 molecules can be found in ChEMBL document CHEMBL4184137, “Lysine Deacetylase Inhibitors in Parasites: Past, Present, and Future Perspectives” (J Med Chem, 2017).

In series [1] the target is T1, Putative silent information regulator 2 (Leishmania infantum, UniProt A0A6L0XH39).
T1 sequence (A0A6L0XH39 whole entry): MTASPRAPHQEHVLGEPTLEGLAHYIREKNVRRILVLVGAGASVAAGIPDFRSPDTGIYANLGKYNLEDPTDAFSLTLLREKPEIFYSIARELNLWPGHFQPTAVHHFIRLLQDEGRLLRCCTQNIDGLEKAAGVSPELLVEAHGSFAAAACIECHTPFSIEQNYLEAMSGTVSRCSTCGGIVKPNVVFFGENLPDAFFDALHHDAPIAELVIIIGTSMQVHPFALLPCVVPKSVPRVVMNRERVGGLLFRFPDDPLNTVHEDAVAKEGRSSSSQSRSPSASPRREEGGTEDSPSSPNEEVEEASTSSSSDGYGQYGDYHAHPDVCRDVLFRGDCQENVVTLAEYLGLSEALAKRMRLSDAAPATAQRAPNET
The experiment in a line: Inhibition of N-terminal His6-tagged recombinant Leishmania infantum SIR2RP1 expressed in Escherichia coli in presence of NAD+ by fluorimetric method.

In series [2] the test system is Leishmania infantum. Put plainly: Antileishmanial activity against amastigote stage of Leishmania infantum infected in PMA-differentiated human THP-1 cells after 3 days by luciferase assay. Particulars: THP-1, 72 h. It is filed as functional, organism-based.
In series [3] the test system is Plasmodium falciparum. Put plainly: Antimalarial activity against Plasmodium falciparum infected in human erythrocytes preincubated for 48 hrs followed by [3H]-hypoxanthine addition measured after 24 hrs by scintillation counting assay. It is filed as functional, organism-based.
A short description of series [4]: Inhibition of Plasmodium falciparum Sir2A.
The subject of series [5] is Plasmodium falciparum. The experiment in a line: Antiplasmodial activity against Plasmodium falciparum 3D7 assessed as growth inhibition after 24 hrs by measuring incorporation of [3H]-hypoxanthine by liquid scintillation counting method. It is filed as functional, organism-based.
The subject of series [6] is Trypanosoma cruzi. The experiment in a line: Antitrypanosomal activity against epimastigotes of Trypanosoma cruzi […] by Alamar Blue assay. It is filed as functional, organism-based. (In general: Resazurin is reduced to fluorescent resorufin, in cell work by metabolically active cells.)
Series [7] concerns Leishmania infantum. The experiment in a line: Antileishmanial activity against amastigote stage of Leishmania infantum MHOM/MA671TMAP263 expressing luciferase after 72 hrs by luciferase assay. Particulars: MHOM/MA671TMAP263, 72 h. It is filed as functional, organism-based.
Series [8] has as its system Schistosoma mansoni. Put plainly: Antiparasitic activity against Schistosoma mansoni assessed as cumulative egg reduction at 20 uM. It is filed as functional. Further details: scale not given: the % may be the effect or the level left.
The test system of series [9] is Schistosoma mansoni. The experiment in a line: Antiparasitic activity against Schistosoma mansoni assessed cell viability at 20 uM after 5 days. It is filed as functional.
The subject of series [10] is Schistosoma mansoni. The experiment in a line: Antiparasitic activity against Schistosoma mansoni assessed as pairing at 20 uM after 6 days relative to control. It is filed as functional.
The subject of series [11] is Plasmodium falciparum. The experiment in a line: Antimalarial activity against Plasmodium falciparum. It is filed as functional, organism-based.
Series [12] concerns the target T2, Histone deacetylase (Plasmodium falciparum) (UniProt Q9XYC7).
T2 sequence (whole entry): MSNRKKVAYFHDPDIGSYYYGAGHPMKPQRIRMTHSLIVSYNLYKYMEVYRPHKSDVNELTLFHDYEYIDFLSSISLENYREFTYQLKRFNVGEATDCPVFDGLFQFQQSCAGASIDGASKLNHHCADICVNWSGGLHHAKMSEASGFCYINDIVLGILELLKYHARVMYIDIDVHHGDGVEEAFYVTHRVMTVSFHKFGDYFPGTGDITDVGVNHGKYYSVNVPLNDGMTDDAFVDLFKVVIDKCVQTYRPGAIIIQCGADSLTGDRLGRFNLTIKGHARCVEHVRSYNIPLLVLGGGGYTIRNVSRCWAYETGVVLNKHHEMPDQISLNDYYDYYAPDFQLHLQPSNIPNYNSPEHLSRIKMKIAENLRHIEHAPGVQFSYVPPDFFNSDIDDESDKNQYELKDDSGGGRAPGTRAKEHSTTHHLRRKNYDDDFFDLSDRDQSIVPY
The experiment in a line: Inhibition of recombinant HDAC1 in recombinant Plasmodium falciparum at 1 uM using Ac-RGK(Ac)-AMC fluorogenic peptide as substrate preincubated for 1 hr followed by substrate addition measured after 10 min by fluorescence assay.

In series [13] the test system is Trypanosoma brucei brucei. Put plainly: Antitrypanosomal activity against Trypanosoma brucei brucei measured after 22 hrs by fluorescence-based Alamar blue viability assay. It is filed as functional, organism-based.
For series [14], the system named is NFF. Put plainly: Cytotoxicity against human NFF cells after 72 hrs by SRB assay. It is filed as cell-based.
The test system of series [15] is HEK293. Put plainly: Cytotoxicity against HEK293 cells after 48 hrs by resazurin assay. It is filed as cell-based. The settings on record: Homo sapiens, HEK293, 48 h.
Series [16] relates to Toxoplasma gondii. The experiment in a line: Antiparasitic activity against tachyzoite stage of Toxoplasma gondii. It is filed as functional, organism-based.
The subject of series [17] is Plasmodium falciparum. Put plainly: Antimalarial activity against Plasmodium falciparum using Malstat reagent by parasite lactate dehydrogenase assay. It is filed as functional, organism-based.
Series [18] has as its target T3, Histone deacetylase (Plasmodium falciparum, UniProt Q9XYC7).
T3 sequence (Q9XYC7 whole entry): T2 sequence (whole entry)
Put plainly: Inhibition of recombinant Plasmodium falciparum HDAC1 using HDAC substrate-3 after 30 mins by fluorescence assay.

Series [19] in a line: Selectivity index, ratio of IC50 for African green monkey Vero cells to IC50 for Plasmodium falciparum D6. It is filed as toxicity. Particulars: read-out: Ratio IC50.
The nature of series [20]: Selectivity index, ratio of IC50 for African green monkey Vero cells to IC50 for Plasmodium falciparum W2. The settings on record: read-out: Ratio IC50. It is filed as toxicity.
Series [21] relates to Trypanosoma brucei. The experiment in a line: Inhibition of recombinant Trypanosoma brucei HDAC1 at 5 uM after 30 mins.
Series [22] deals with Trypanosoma brucei. Put plainly: Inhibition of recombinant Trypanosoma brucei HDAC3 at 5 uM after 30 mins.
The subject of series [23] is Plasmodium falciparum. Put plainly: Antimalarial activity against Plasmodium falciparum infected in type O-positive erythrocytes by [3H]-hypoxanthine incorporation assay. It is filed as functional, organism-based.
Series [24] deals with Plasmodium falciparum. Put plainly: Gametocytocidal activity against transgenic GFP-fused Plasmodium falciparum NF54 […] gametocytes after 24 hrs by MitoTracker Red CM-H2XRos late-stage gametocyte imaging-based viability assay. Particulars: NF54, 24 h. It is filed as functional, organism-based.
A short description of series [25]: Selectivity index, ratio of IC50 for human NFF cells to IC50 for Plasmodium falciparum. It is filed as toxicity. Particulars: read-out: Ratio IC50.
The nature of series [26]: Selectivity index, ratio of IC50 for human NFF cells to IC50 for transgenic GFP-fused Plasmodium falciparum NF54 […] gametocyte. It is filed as toxicity. Particulars: read-out: Ratio IC50.

A word on the IC50: it is the concentration that inhibits the measured activity by half. On to `O=C1c2cccc3cccc(c23)C(=O)N1CCNCCCCCNCCN1C(=O)c2cccc3cccc(c23)C1=O`, for which the IC50 in series [1] lay within 5.7 to 54.7 µM; in [2], 1 to 10 µM.
As for `O=C1c2cccc3cccc(c23)C(=O)N1CCNCCCCCCCCCCCCNCCN1C(=O)c2cccc3cccc(c23)C1=O`, the IC50 in series [1] was 5.7 to 54.7 µM; in [2], 1 to 10 µM.
For `O=C1c2cccc3cccc(c23)C(=O)N1CCNCCCCCCCCNCCN1C(=O)c2cccc3cccc(c23)C1=O`, the results for the concentration for half-maximal inhibition (IC50) in series [1] and in series [2] were 5.7 to 54.7 µM and 1 to 10 µM, respectively.
Molecule `O=C(/C=C/c1ccc(C(=O)NO)cc1)NO` gave an IC50 in [3] of 0.9 to 1.1 µM.
What is called EC50 is the concentration giving half of the maximal effect. For `NC(=O)c1cccnc1` [NIACINAMIDE], the half-inhibitory concentration (IC50) in series [4] is 51 µM; in series [5] it was 9900 µM; in [1], 40 µM; in [7] it was 5500 to 13900 µM. Moreover, the concentration for a half-maximal effect (EC50) in series [6] came to 25800 µM.
For the molecule `O=C1CCc2c(ccc3ccccc23)O1` [SPLITOMICIN], the IC50 was above 400 µM in series [4] and above 10 µM in series [5].
Turning to `O=C1NC(=S)NC(=O)C1=Cc1cc2ccccc2[nH]1`, the Activity in series [8] was found to be 65%; in [9], 100%; in series [10], 100%.
As for `O=C1c2cccc3cccc(c23)C(=O)N1CCNCCCCCCCNCCN1C(=O)c2cccc3cccc(c23)C1=O`, the values for the IC50 in series [1] and in series [2] were 5.7 to 54.7 µM and 1 to 10 µM, respectively.
As to `O=C1c2cccc3cccc(c23)C(=O)N1CCNCCCNCCCCNCCCNCCN1C(=O)c2cccc3cccc(c23)C1=O`, the IC50 in [1] lay within 5.7 to 54.7 µM; in series [2], 1 to 10 µM.
For `Oc1ccc(/C=C/c2cc(O)cc(O)c2)cc1` [RESVERATROL], in series [11], the IC50 stood at 60 µM.
For `O=C1c2cccc3cccc(c23)C(=O)N1CCNCCCNCCCNCCN1C(=O)c2cccc3cccc(c23)C1=O`, the half-maximal inhibitory concentration (IC50) in series [1] was 5.7 to 54.7 µM; in series [2], 1 to 10 µM.
By inhibition is commonly meant the drop in the measured response relative to a control, in per cent. `Cc1[nH]c2ccccc2c1CCNCc1ccc(/C=C/C(=O)NO)cc1` [PANOBINOSTAT]: the inhibition in series [12] came to 100%. In addition, the half-inhibitory concentration (IC50) in [3] is 0.01 to 0.03 µM; in series [13] it was 1.69 µM; in [14], 0.07 to 0.18 µM; in [15] it was 0.07 to 0.18 µM.
In series [16], `O=C(CCCCCN1C(=O)c2cccc3cccc(c23)C1=O)NO` yielded a 50% inhibitory concentration (IC50) of 0.039 µM.
For `O=C1c2cccc3cccc(c23)C(=O)N1CCNCCNCCNCCN1C(=O)c2cccc3cccc(c23)C1=O`, the IC50 lay within 5.7 to 54.7 µM in series [1] and 1 to 10 µM in [2].
Take `CC[C@H]1OC(=O)[C@H](C)[C@@H](O[C@H]2C[C@@](C)(OC)[C@@H](O)[C@H](C)O2)[C@H](C)[C@@H](O[C@@H]2O[C@H](C)C[C@H](N(C)Cc3ccc(-c4cn(CCCCCCC(=O)NO)nn4)cc3)[C@H]2O)[C@](C)(O)C[C@@H](C)CN(C)[C@H](C)[C@@H](O)[C@]1(C)O`: the IC50 in series [17] was 0.094 to 0.226 µM; in [18], 0.029 µM. Also, the selectivity ratio was above 20.7 in series [19] and above 47.6 in series [20].
With `O=C(CCCCCCC(=O)NO)NO` [SUBEROHYDROXAMIC ACID], the 50% inhibitory concentration (IC50) in [3] is 0.8 to 2.3 µM; in series [16], 0.213 µM.
With `O=C(/C=C/c1cccc(S(=O)(=O)Nc2ccccc2)c1)NO` [BELINOSTAT], the inhibition in series [12] came to 78.5%. For the same molecule, the half-inhibitory concentration (IC50) in series [3] is 0.06 to 0.13 µM; in series [13] it was 2.6 µM; in [14], 1.4 to 2.4 µM; in series [15], 1.4 to 2.4 µM.
On to `Cc1ccc(C(=O)Nc2ccc(S(=O)(=O)O)c3cc(S(=O)(=O)O)cc(S(=O)(=O)O)c23)cc1NC(=O)c1cccc(NC(=O)Nc2cccc(C(=O)Nc3cc(C(=O)Nc4ccc(S(=O)(=O)O)c5cc(S(=O)(=O)O)cc(S(=O)(=O)O)c45)ccc3C)c2)c1` [SURAMIN], for which the IC50 in [1] turned out to be 7 µM.
With `O=C1c2cccc3cccc(c23)C(=O)N1CCNCCCCCCCCCNCCN1C(=O)c2cccc3cccc(c23)C1=O`, the IC50 lay in the range of 5.7 to 54.7 µM in [1] and 1 to 10 µM in [2].
`CC(/C=C/C(=O)NO)=C\[C@@H](C)C(=O)c1ccc(N(C)C)cc1` [TRICHOSTATIN]: the IC50 was 7 µM in series [13] and 0.041 µM in series [16]. In addition, the inhibition in series [21] and in [22] was above 50% in each case.
On to `CCCC(CCC)C(=O)O` [VALPROIC ACID], for which the half-maximal inhibitory concentration (IC50) in series [11] was above 100 µM.
As for `O=C1c2cccc3cccc(c23)C(=O)N1CCNCCCCNCCN1C(=O)c2cccc3cccc(c23)C1=O`, the IC50 was in the range of 5.7 to 54.7 µM in series [1] and 1 to 10 µM in [2].
In the case of `O=C(CCCCCONC(=O)Nc1cccc2ccccc12)NO`, the IC50 in series [23] was 0.25 to 0.32 µM; in series [24] it was 2.12 to 2.25 µM; in series [14], 19.5 µM. Further, the selectivity ratio in series [25] is 36 to 78; in series [26], 9.
As for `O=C1c2cccc3cccc(c23)C(=O)N1CCNCCCCCCNCCN1C(=O)c2cccc3cccc(c23)C1=O`, the IC50 in series [1] was in the range of 5.7 to 54.7 µM; in series [2], 1 to 10 µM.
For the molecule `O=C1c2cccc3cccc(c23)C(=O)N1CCNCCCCCCCCCCNCCN1C(=O)c2cccc3cccc(c23)C1=O`, the results for the 50% inhibitory concentration (IC50) in [1] and in series [2] were 5.7 to 54.7 µM and 1 to 10 µM, respectively.
For the molecule `O=C1c2cccc3cccc(c23)C(=O)N1CCNCCCCNCCCNCCN1C(=O)c2cccc3cccc(c23)C1=O`, the half-maximal inhibitory concentration (IC50) in series [1] fell in the range of 5.7 to 54.7 µM; in series [2], 1 to 10 µM.
